# US7074779B2, “Estrieno[3,2-b]/[3,4-c]pyrrole derivatives useful as modulators of the estrogen receptors” (Ortho-McNeil Pharmaceutical, Inc., priority 2003, dated 2006)
# Molecular target: T1, human estrogen receptor β (Homo sapiens, UniProt Q92731)
# T1 construct: purchased Panvera
# Test: Estrogen Receptor β Fluorescence Polarization Assay
# Conditions: displacement of Fluormone ES2; read-out: ERβ Binding IC50
# Excerpt: This assay monitors binding of a fluorescent analog of estrogen (Fluormone ES2, Panvera) to the estrogen receptor. Plates were read in a fluorometer that can be set to polarization mode. A decrease in […] relative to vehicle control is an indication of binding of a compound to the receptor. It is crucial to avoid introduction of air bubbles into the reaction in each well of the 96 well plate throughout this procedure. (Bubbles on the surface of the reaction disrupt light flow, affecting the polarization reading.) However, it is also crucial to effectively mix the reaction components upon addition to the well. On ice, a 2× standard mixture of Assay Buffer (Panvera), 10 nM DTT and 40 nM ES2 was prepared. On ice, a 2× reaction mixture of Assay Buffer (Panvera), and 20 nM human estrogen receptor β (hER-β, Panvera) and 40 nM ES2 was also prepared. Dilutions-of test compound were prepared in 30% (v/v) dimethyl sulfoxide/50 mM HEPES, pH 7.5. At this point, the dilutions were 40× the final required concentration. The standard mixture at 50 μL was then added to each well. The reaction mixture at 48 μL was added to all wells. The compound dilution at 2.5 μL was added to the appropriate wells. The reaction mixtures were mixed using a manual pipette, a roll of aluminum foil adhesive cover was placed on the plate and the plate incubated at room temperature for 1 hour. Each well on the plate was then read in an LjL Analyst with an excitation wavelength of […] and an emission wavelength of 538.
# T1 sequence (Q92731 whole entry): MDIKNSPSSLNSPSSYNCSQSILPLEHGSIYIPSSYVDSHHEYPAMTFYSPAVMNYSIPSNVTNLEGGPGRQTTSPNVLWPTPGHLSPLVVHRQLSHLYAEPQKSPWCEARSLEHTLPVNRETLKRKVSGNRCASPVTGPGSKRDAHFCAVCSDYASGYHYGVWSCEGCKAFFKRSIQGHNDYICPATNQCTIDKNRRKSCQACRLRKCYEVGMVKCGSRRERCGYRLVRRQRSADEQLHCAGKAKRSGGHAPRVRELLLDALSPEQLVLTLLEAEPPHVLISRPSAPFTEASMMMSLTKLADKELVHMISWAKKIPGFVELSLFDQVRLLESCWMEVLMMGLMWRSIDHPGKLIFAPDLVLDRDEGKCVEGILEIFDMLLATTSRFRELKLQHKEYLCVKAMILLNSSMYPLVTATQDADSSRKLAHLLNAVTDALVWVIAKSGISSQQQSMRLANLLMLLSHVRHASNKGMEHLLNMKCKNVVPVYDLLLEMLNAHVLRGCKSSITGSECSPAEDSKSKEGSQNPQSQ
row,SMILES,IC50 [nM]
1,C[C@]12CCC3c4cc5cc[nH]c5cc4CCC3C1CCC2=O (some centres unmarked) [Compound 3],> 10000
2,C[C@]12CCC3c4ccc5[nH]ccc5c4CCC3C1CCC2=O (some centres unmarked) [Compound 4],610
3,C[C@]12CCC3c4cc5cc[nH]c5cc4CCC3C1CC[C@@H]2OC(=O)CCC(=O)O (some centres unmarked) [Compound 13],610

# Stronger by IC50, values ahead:
row,IC50 [nM],SMILES
1,150,C[C@]12CCC3c4cc5cc[nH]c5cc4CCC3C1CC[C@@H]2O (some centres unmarked) [Compound 8]
2,91,C[C@]12CCC3c4ccc5[nH]ccc5c4CCC3C1CC[C@@H]2O (some centres unmarked) [Compound 6]
